Our source for the IC50 values is ChEMBL document CHEMBL5260855, “Design, synthesis and biological evaluation of simplified analogues of MraY inhibitory natural product with rigid scaffold” (Bioorg Med Chem, 2021).

The target of one assay is T1, Phospho-N-acetylmuramoyl-pentapeptide-transferase (Staphylococcus aureus, UniProt P0C1R8).
T1 sequence (P0C1R8 whole entry): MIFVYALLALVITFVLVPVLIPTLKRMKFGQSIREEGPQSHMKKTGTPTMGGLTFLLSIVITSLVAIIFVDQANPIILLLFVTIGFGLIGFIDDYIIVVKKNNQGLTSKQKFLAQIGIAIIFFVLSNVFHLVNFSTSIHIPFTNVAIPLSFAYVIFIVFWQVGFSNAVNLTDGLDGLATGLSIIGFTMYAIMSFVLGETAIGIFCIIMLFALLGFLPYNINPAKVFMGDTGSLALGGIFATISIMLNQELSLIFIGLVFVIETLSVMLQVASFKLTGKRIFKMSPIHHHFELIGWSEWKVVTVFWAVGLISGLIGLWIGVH
Briefly: Inhibition of Staphylococcus aureus MraY using UDP-MurNAc-dansylpentapeptide as substrate incubated for 3 hrs by fluorescence based microplate reader analysis.
For orientation: IC50 means the concentration that inhibits the measured activity by half. Higher therefore signals a need for much substance. `NC[C@H]1O[C@@H](O[C@@H](C#Cc2cccc(NC(=O)c3ccccc3)c2)[C@H]2O[C@@H](n3ccc(=O)[nH]c3=O)[C@H](O)[C@@H]2O)[C@H](O)[C@@H]1O`: 6.7 µM corresponded to half-maximal inhibition (IC50).

On to `NC[C@H]1O[C@@H](O[C@@H](C#Cc2ccccc2)[C@H]2O[C@@H](n3ccc(=O)[nH]c3=O)[C@H](O)[C@@H]2O)[C@H](O)[C@@H]1O`, for which the midpoint of inhibition, the IC50, lay at 2 µM. Compared with the last molecule, the IC50 is about 3.4-fold lower.

As to `Cc1cccc(C#C[C@H](O[C@@H]2O[C@H](CN)[C@@H](O)[C@H]2O)[C@H]2O[C@@H](n3ccc(=O)[nH]c3=O)[C@H](O)[C@@H]2O)c1`, half-maximal inhibition (IC50) required 1.4 µM.

In the case of `NC[C@H]1O[C@@H](O[C@@H](C#Cc2cccc(C(=O)O)c2)[C@H]2O[C@@H](n3ccc(=O)[nH]c3=O)[C@H](O)[C@@H]2O)[C@H](O)[C@@H]1O`, half-maximal inhibition (IC50) required 1.5 µM.

On to `NC[C@H]1O[C@@H](O[C@@H](CCc2ccccc2)[C@H]2O[C@@H](n3ccc(=O)[nH]c3=O)[C@H](O)[C@@H]2O)[C@H](O)[C@@H]1O`, for which 32 µM corresponded to half-maximal inhibition (IC50). In turn, `NC[C@H]1O[C@@H](O[C@@H](C#Cc2ccc(NS(=O)(=O)c3ccccc3)cc2)[C@H]2O[C@@H](n3ccc(=O)[nH]c3=O)[C@H](O)[C@@H]2O)[C@H](O)[C@@H]1O` came in with an IC50 of 1 µM. Compared with the last molecule, the IC50 is about 32-fold lower. Still for that read-out and setting: under `NC[C@H]1O[C@@H](O[C@@H](C#Cc2ccc(NC(=O)c3ccccc3)cc2)[C@H]2O[C@@H](n3ccc(=O)[nH]c3=O)[C@H](O)[C@@H]2O)[C@H](O)[C@@H]1O` stands 1.4 µM; under `NC[C@H]1O[C@@H](O[C@@H](C#Cc2ccc(N)cc2)[C@H]2O[C@@H](n3ccc(=O)[nH]c3=O)[C@H](O)[C@@H]2O)[C@H](O)[C@@H]1O`, 0.3 µM; under `NC[C@H]1O[C@@H](O[C@@H](C#Cc2ccccc2C(=O)O)[C@H]2O[C@@H](n3ccc(=O)[nH]c3=O)[C@H](O)[C@@H]2O)[C@H](O)[C@@H]1O`, 5.7 µM.

In turn, `NC[C@H]1O[C@@H](O[C@@H](C#Cc2cccc(NS(=O)(=O)c3ccccc3)c2)[C@H]2O[C@@H](n3ccc(=O)[nH]c3=O)[C@H](O)[C@@H]2O)[C@H](O)[C@@H]1O` registered an IC50 of 0.95 µM. On to `NC[C@H]1O[C@@H](O[C@@H](C#Cc2cccc(C(=O)Nc3ccccc3)c2)[C@H]2O[C@@H](n3ccc(=O)[nH]c3=O)[C@H](O)[C@@H]2O)[C@H](O)[C@@H]1O`, for which the IC50 was found to be 1.1 µM. For `NC[C@H]1O[C@@H](O[C@@H](C#Cc2ccc(-c3ccccc3)cc2)[C@H]2O[C@@H](n3ccc(=O)[nH]c3=O)[C@H](O)[C@@H]2O)[C@H](O)[C@@H]1O`, the IC50 was found to be 0.59 µM.

`NC[C@H]1O[C@@H](O[C@@H](C#Cc2cccc(-c3ccccc3)c2)[C@H]2O[C@@H](n3ccc(=O)[nH]c3=O)[C@H](O)[C@@H]2O)[C@H](O)[C@@H]1O` came in with an IC50 of 0.65 µM. On to `NC[C@H]1O[C@@H](O[C@@H](C#Cc2cccc(N)c2)[C@H]2O[C@@H](n3ccc(=O)[nH]c3=O)[C@H](O)[C@@H]2O)[C@H](O)[C@@H]1O`, for which the IC50 worked out at 1.8 µM. Against the preceding molecule, the IC50 is about 2.8-fold higher. Still for that read-out and setting: under `NC[C@H]1O[C@@H](O[C@@H](C#Cc2ccccc2N)[C@H]2O[C@@H](n3ccc(=O)[nH]c3=O)[C@H](O)[C@@H]2O)[C@H](O)[C@@H]1O` stands 2.1 µM; under `NC[C@H]1O[C@@H](O[C@@H](C#Cc2ccc(C(=O)Nc3ccccc3)cc2)[C@H]2O[C@@H](n3ccc(=O)[nH]c3=O)[C@H](O)[C@@H]2O)[C@H](O)[C@@H]1O`, 0.9 µM. Molecule `Cc1ccccc1C#C[C@H](O[C@@H]1O[C@H](CN)[C@@H](O)[C@H]1O)[C@H]1O[C@@H](n2ccc(=O)[nH]c2=O)[C@H](O)[C@@H]1O` showed an IC50 of 2 µM. Consider `C#C[C@H](O[C@@H]1O[C@H](CN)[C@@H](O)[C@H]1O)[C@H]1O[C@@H](n2ccc(=O)[nH]c2=O)[C@H](O)[C@@H]1O`, for which the IC50 is 90 µM. This IC50 lies about 45-fold higher than the previous one. Turning to `NC[C@H]1O[C@@H](O[C@@H](C#Cc2ccc(C(=O)O)cc2)[C@H]2O[C@@H](n3ccc(=O)[nH]c3=O)[C@H](O)[C@@H]2O)[C@H](O)[C@@H]1O`, the IC50 amounted to 4.4 µM.

The molecule `Cc1ccc(C#C[C@H](O[C@@H]2O[C@H](CN)[C@@H](O)[C@H]2O)[C@H]2O[C@@H](n3ccc(=O)[nH]c3=O)[C@H](O)[C@@H]2O)cc1` registered an IC50 of 1.3 µM.

Tested on in a further assay: not listed separately
Briefly: Inhibition of bacterial MraY. Details: species or system Bacteria.
For `CCCCCCCCCCCCCCCCC[C@H]1CN[C@@H]([C@H](O[C@@H]2O[C@H](CN)[C@@H](O)[C@H]2O)[C@H]2O[C@@H](n3ccc(=O)[nH]c3=O)[C@H](O)[C@@H]2O)C(=O)N(C)[C@@H]1C(=O)O`, the IC50 was found to be 0.0038 µM.

`CCCCCCCCCCCCCCCC[C@H](NC(C)=O)C(=O)NCCCN[C@H](C(=O)O)[C@H](O[C@@H]1O[C@H](CN)[C@@H](O)[C@H]1O)[C@H]1O[C@@H](n2ccc(=O)[nH]c2=O)[C@H](O)[C@@H]1O` displayed an IC50 of 0.0027 µM. Take `CC(C)C[C@H](NC(=O)[C@@H](NC(=O)N[C@H](C(=O)O)C(C)C)[C@@H]1CCNC(=N)N1)C(=O)NCCCN[C@H](C(=O)O)[C@H](O[C@@H]1O[C@H](CN)[C@@H](O)[C@H]1O)[C@H]1O[C@@H](n2ccc(=O)[nH]c2=O)[C@H](O)[C@@H]1O` [MURAMYCIN D2]: the IC50 was determined as 0.025 µM.

The next assay deals with T2, Phospho-N-acetylmuramoyl-pentapeptide-transferase (Bacillus subtilis (strain 168), UniProt Q03521).
T2 sequence (Q03521 whole entry): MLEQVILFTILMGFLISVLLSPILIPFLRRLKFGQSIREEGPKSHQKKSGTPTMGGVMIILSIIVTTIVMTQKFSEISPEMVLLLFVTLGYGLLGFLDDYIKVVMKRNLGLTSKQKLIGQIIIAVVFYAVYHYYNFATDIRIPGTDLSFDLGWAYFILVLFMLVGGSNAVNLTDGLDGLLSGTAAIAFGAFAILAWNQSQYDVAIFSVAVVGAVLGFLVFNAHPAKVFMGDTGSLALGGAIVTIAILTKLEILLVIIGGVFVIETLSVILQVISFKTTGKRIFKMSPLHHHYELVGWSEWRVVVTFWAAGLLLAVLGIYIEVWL
Briefly: Inhibition of Bacillus subtilis MraY.
Consider `NC[C@H]1O[C@@H](O[C@@H](c2cn(Cc3ccc(Cc4ccc(C(=O)c5ccccc5)cc4)cc3)nn2)[C@H]2O[C@@H](n3ccc(=O)[nH]c3=O)[C@H](O)[C@@H]2O)[C@H](O)[C@@H]1O`, for which the IC50 was found to be 50 µM.
